Data from the NIST ThermoML archive (doi:10.1021/je300143a).
Numbers after ± are expanded uncertainties.

What was measured:
[1] = Crystal; DTA
[2] = Molar enthalpy of transition or fusion; settings: Crystal; DSC

| Compound | Normal melting temperature [1] [°C] | Molar enthalpy of transition or fusion [2] [kcal/mol] |
| --- | --- | --- |
| c1ccc(NC2=NCCC3(CCCCC3)S2)cc1 [N-phenyl-1-thia-3-azaspiro[5.5]undec-2-en-2-amine] | 113.4 ± 0.5 | 5.16 ± 0.263 |
| CCc1ccc(NC2=NCCC3(CCCCC3)S2)cc1 [N-(4-ethylphenyl)-1-thia-3-azaspiro[5.5]undec-2-en-2-amine] | 139.4 ± 0.5 | 10.2 ± 0.311 |
| COc1ccc(NC2=NCCC3(CCCCC3)S2)cc1 [N-(4-methoxyphenyl)-1-thia-3-azaspiro[5.5]undec-2-en-2-amine] | 115.4 ± 0.5 | 7 ± 0.287 |
| Brc1ccc(NC2=NCCC3(CCCCC3)S2)cc1 [N-(4-bromophenyl)-1-thia-3-azaspiro[5.5]undec-2-en-2-amine] | 175.2 ± 0.5 | 10.6 ± 0.311 |
| CC(=O)c1ccc(NC2=NCCC3(CCCCC3)S2)cc1 | 163.5 ± 0.5 | 7.77 ± 0.287 |
| O=C(NC1=NCCC2(CCCCC2)S1)c1ccccc1 [N-(1-thia-3-azaspiro[5.5]undec-2-en-2-yl)benzamide] | 130.2 ± 0.5 | 6.67 ± 0.287 |
| FC(F)(F)c1ccc(NC2=NCCC3(CCCCC3)S2)cc1 | 149.7 ± 0.5 | 7.86 ± 0.287 |

Second part, the compound after the results:

| Normal melting temperature [1] [°C] | Molar enthalpy of transition or fusion [2] [kcal/mol] | Compound |
| --- | --- | --- |
| 149.2 ± 0.5 | 7.93 ± 0.287 | Cc1ccc(NC2=NCCC3(CCCCC3)S2)cc1Cl |
| 139.6 ± 0.5 | 6.98 ± 0.287 | CC(C)c1ccc(NC2=NCCC3(CCCCC3)S2)cc1 |
| 162.6 ± 0.5 | 6.67 ± 0.287 | Clc1ccc(NC2=NCCC3(CCCCC3)S2)cc1 [N-(4-chlorophenyl)-1-thia-3-azaspiro[5.5]undec-2-en-2-amine] |
| 108.2 ± 0.5 | 10 ± 0.311 | Cc1ccc(NC2=NCCC3(CCCCC3)S2)cc1 [N-(4-methylphenyl)-1-thia-3-azaspiro[5.5]undec-2-en-2-amine] |
